From patent US20190070159A1, “NOVEL PHARMACEUTICAL USES” (TAKEDA PHARMACEUTICAL COMPANY LIMITED, priority 2015, published 2019)

Legend:
[1] = system: non-erosive reflux disease (NERD); conditions: NERD patients, cited from earlier work
[2] = system: PPI-resistant EE of LA Classification Grades A to D; test: EE healing rate after 8-week treatment, phase 3 study in PPI-resistant EE patients; assay type: in vivo, human
Method: (§1) This was a phase 3, randomized, double-blind, parallel-group, multicenter study to evaluate the dose-response relationships of the acid-inhibitory effect and efficacy of TAK-438 (20 mg and 40 mg) in patients with PPI-resistant EE of LA Classification Grades A to D.
(§2) A patient with PPI-resistant EE was defined as a patient who had EE of LA Classification Grades A to D endoscopically confirmed at the examination in the run-in period after receiving a regular or higher PPI dose for at least 8 weeks until immediately before the start of the run-in period. This study consisted of a 7- to 14-day run-in period and an 8-week treatment period. Subjects who entered the run-in period orally received 1 capsule of the PPI lansoprazole 30 mg once daily after breakfast for at least 7 days, but not more than 14 days. As a rule, subjects underwent endoscopic examination 2 days before the end of the run-in period, after receiving the study medication for the run-in period for at least 5 days. The acid-inhibitory effect of the study medication during the run-in period was evaluated by monitoring gastroesophageal pH for 24 hours, beginning from the day before the end of the run-in period. The subject was then randomized at a 1:1 ratio to receive either TAK-438 20 mg or 40 mg and entered the treatment period. Subjects orally received the assigned medications once daily after breakfast for 8 weeks from the day after the end of the run-in period.
Subject eligibility for this study required that the subject had received a regular or higher dose of PPI for EE treatment for at least 8 weeks until immediately before the start of the run-in period. In addition, the subject had EE for which a regular or higher dose of PPI had not been effective, or more specifically, the subject had EE of LA Classification Grades A to D endoscopically confirmed at the examination in the run-in period.
The secondary endpoint was the EE healing rate after 8-week treatment with TAK-438.

[3] = system: GERD symptoms (heartburn and acid regurgitation); test: Clinical study in PPI partial responders (NERD and LA grade A EE), symptom diary; assay type: in vivo, human; conditions: TAK-438 20 mg QD or 40 mg QD for 4 weeks
Method: A study is held to evaluate TAK-438 (20 mg QD and 40 mg QD) in subjects who have a history of heartburn-predominant GERD despite an adequate course of PPI treatment and who are then confirmed to have a partial response to a 4-week treatment course with a PPI (esomeprazole 40 mg QD).
Subjects are eligible for participation in the study if they: • have a documented history of symptoms of both heartburn and acid regurgitation prior to entry into the study; • have a history of heartburn-predominant GERD despite an adequate course of PPI treatment; • continue to have symptoms of heartburn (with or without regurgitation) following 4 weeks treatment with a high dose of esomeprazole 40 mg QD; • have symptoms of heartburn (with or without regurgitation) which increase following a 2-week washout period compared with the prior 4 week course of high dose esomeprazole 40 mg QD.
The subjects entered into the study are NERD and mild (LA grade A, as defined by the Los Angeles Classification) erosive esophagitis (EE). […]

erosive esophagitis (EE) = conditions: patients with erosive esophagitis; cited from earlier work
gastric acid secretion [4] = conditions: rats, versus the PPI lansoprazole; cited from earlier work
pH holding time = conditions: cited from earlier work
[5] = Safety and tolerability, phase 3 study in PPI-resistant EE patients; assay type: in vivo, human; conditions: subjects with PPI-resistant EE of LA Grades A to D, 20 mg or 40 mg for 8 weeks
Method: as §1
as §2, with “Subjects orally received the assigned medications once daily after breakfast for 8 weeks from the day after the end of the run-in period.” left out

gastric acid secretion [6] = test: 24-hour gastroesophageal pH monitoring, phase 3 study in PPI-resistant EE patients; assay type: in vivo, human
Method: as §1, §2
Efficacy: The primary endpoint was the time course of gastroesophageal pH changes over 24 hours at steady state in the treatment period. The primary measure was gastric and esophageal pH 4 holding time ratios (HTRs). Other measures were gastric and esophageal pH 1, 2, 3, 5, 6, and 7 HTRs, mean gastric pH, and mean esophageal pH.

[7] = TAK-438 20 mg once daily, after 2 weeks, subjects with PPI-resistant EE
[8] = TAK-438 40 mg once daily, after 2 weeks, subjects with PPI-resistant EE
[9] = both treatment groups (20 mg and 40 mg), after 2 weeks

## Cc1cccc(C)c1CNc1cc(C(=O)NCCO)cn2c(C)c(C)nc12 [AZD0865]
[1]; 4 weeks
  clinical benefit over esomeprazole in treatment of NERD symptoms: did not provide clinical benefit over esomeprazole
[1]
  duration of effect: prolonged, dose-dependent duration of effect
  inhibition of acid production: rapid inhibition of acid production

## CNCc1cc(-c2ccccc2F)n(S(=O)(=O)c2cccnc2)c1.O=C(O)/C=C/C(=O)O [TAK-438, 1-[5-(2-fluorophenyl)-1-(pyridin-3-ylsulfonyl)-1H-pyrrol-3-yl]-N-methylmethanamine]
[2]; TAK-438 20 mg group, 4 out of 9 subjects
  EE healing rate after 8-week treatment: 44.4%
[2]; TAK-438 40 mg group, 5 out of 9 subjects
  EE healing rate after 8-week treatment: 55.6%
[2]; subjects with PPI-resistant EE of LA Grades A to D, 20 mg or 40 mg
  overall efficacy: effective
[3]
  heartburn and/or regurgitation symptoms: can reduce heartburn and/or regurgitation symptoms throughout the whole day and night
  percentage of heartburn-free days and nights (24-hour periods): can increase the percentage of heartburn-free days and nights
Erosive esophagitis (EE)
  efficacy in treatment of EE and maintenance of EE healing: effective for the treatment of EE and maintenance of EE healing
Gastric acid secretion [4]
  inhibitory action on gastric acid secretion compared with lansoprazole: more potent and longer-lasting
pH holding time; after dosing, maintained with chronic dosing
  time to near maximal effect on pH holding time: ≤ 24 hours
pH holding time; after the first dose, single and multiple repeat-dosing studies
  onset of action: rapid onset of action after the first dose
[5]
  safety and tolerability: safe, and well tolerated
Gastric acid secretion [6]; [7]
  mean 24-hour esophageal pH 4 HTR: 98.41%
  mean 24-hour gastric pH 4 HTR: 96.46%
Gastric acid secretion [6]; TAK-438 20 mg or 40 mg, nighttime as well as daytime, subjects with PPI-resistant EE
  effect on gastric acid secretion: suppressed gastric acid secretion
Gastric acid secretion [6]; [8]
  mean 24-hour esophageal pH 4 HTR: 99.86%
  mean 24-hour gastric pH 4 HTR: 100.00%
Gastric acid secretion [6]; after 2 weeks, differences between groups not statistically significant
  increases in gastric and esophageal pH 4 HTRs, 40 mg versus 20 mg group: greater in the TAK-438 40 mg group than in the TAK-438 20 mg group
Gastric acid secretion [6]; [9]
  mean 24-hour esophageal pH 1, 2, 3, 6, and 7 HTRs, change from baseline: remained almost unchanged
  mean 24-hour esophageal pH 5 HTR, change from baseline: slightly increased
  mean 24-hour gastric pH 2, 3, 5, 6, and 7 HTRs, change from baseline: increased from baseline
Gastric acid secretion [6]; both treatment groups (20 mg and 40 mg), after 2 weeks of TAK-438, baseline also 100.00%
  mean 24-hour gastric pH 1 HTR: 100.00%
Gastric acid secretion [6]; both treatment groups, 12-hour and 24-hour periods
  mean gastric pH, change from baseline: increased from baseline
Gastric acid secretion [6]; both treatment groups, changes greater during nighttime than daytime
  mean gastric pH 4 HTRs during daytime and nighttime: increased during both the daytime and nighttime with statistical significance
Gastric acid secretion [6]; both treatment groups, lesser extent than mean gastric pH
  mean esophageal pH, change from baseline: also increased
Gastric acid secretion [6]; both treatment groups, lower limits of 95% CI of mean changes greater than 0
  significance of increase from baseline in 24-hour gastric pH 4 HTR: statistically significant
Gastric acid secretion [6]; either treatment group (20 mg, 40 mg)
  significance of change from baseline in 24-hour esophageal pH 4 HTR: not statistically significant
